Test results reported in ChEMBL document CHEMBL4507272 (2021).

Key:
Details in all cases: Compound concentration 1000.0 nM
[1] = target: Ribosomal protein S6 kinase alpha-2 (Homo sapiens) (UniProt Q15349)
[2] = target: Mitogen-activated protein kinase 13 (Homo sapiens) (UniProt O15264)
[3] = target: Leukocyte tyrosine kinase receptor (Homo sapiens) (UniProt P29376)
[4] = target: Calcium/calmodulin-dependent protein kinase type 1G (Homo sapiens) (UniProt Q96NX5)
[5] = target: Calcium/calmodulin-dependent protein kinase type II subunit beta (Homo sapiens) (UniProt Q13554)
Calcium/calmodulin-dependent protein kinase type II subunit beta (Homo sapiens), sequence (Q13554 whole entry): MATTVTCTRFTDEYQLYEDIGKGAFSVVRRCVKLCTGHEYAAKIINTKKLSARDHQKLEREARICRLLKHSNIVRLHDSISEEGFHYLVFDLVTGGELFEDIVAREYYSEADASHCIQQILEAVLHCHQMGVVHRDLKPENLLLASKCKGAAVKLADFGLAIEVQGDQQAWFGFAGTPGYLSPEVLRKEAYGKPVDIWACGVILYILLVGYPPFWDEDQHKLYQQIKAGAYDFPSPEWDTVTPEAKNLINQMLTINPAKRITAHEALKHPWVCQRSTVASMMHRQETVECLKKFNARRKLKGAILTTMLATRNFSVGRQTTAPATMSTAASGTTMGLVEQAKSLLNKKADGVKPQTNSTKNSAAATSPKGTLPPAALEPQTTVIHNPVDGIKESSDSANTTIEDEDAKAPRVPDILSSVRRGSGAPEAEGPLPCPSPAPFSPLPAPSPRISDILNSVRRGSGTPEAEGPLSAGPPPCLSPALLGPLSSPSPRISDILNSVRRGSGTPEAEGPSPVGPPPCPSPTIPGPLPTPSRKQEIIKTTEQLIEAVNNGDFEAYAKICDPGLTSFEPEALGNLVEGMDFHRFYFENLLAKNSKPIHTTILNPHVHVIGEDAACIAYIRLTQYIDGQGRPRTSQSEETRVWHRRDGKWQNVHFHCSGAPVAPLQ

[6] = target: Receptor-type tyrosine-protein kinase FLT3 (Homo sapiens) (UniProt P36888)
Receptor-type tyrosine-protein kinase FLT3 (Homo sapiens), sequence (P36888 whole entry): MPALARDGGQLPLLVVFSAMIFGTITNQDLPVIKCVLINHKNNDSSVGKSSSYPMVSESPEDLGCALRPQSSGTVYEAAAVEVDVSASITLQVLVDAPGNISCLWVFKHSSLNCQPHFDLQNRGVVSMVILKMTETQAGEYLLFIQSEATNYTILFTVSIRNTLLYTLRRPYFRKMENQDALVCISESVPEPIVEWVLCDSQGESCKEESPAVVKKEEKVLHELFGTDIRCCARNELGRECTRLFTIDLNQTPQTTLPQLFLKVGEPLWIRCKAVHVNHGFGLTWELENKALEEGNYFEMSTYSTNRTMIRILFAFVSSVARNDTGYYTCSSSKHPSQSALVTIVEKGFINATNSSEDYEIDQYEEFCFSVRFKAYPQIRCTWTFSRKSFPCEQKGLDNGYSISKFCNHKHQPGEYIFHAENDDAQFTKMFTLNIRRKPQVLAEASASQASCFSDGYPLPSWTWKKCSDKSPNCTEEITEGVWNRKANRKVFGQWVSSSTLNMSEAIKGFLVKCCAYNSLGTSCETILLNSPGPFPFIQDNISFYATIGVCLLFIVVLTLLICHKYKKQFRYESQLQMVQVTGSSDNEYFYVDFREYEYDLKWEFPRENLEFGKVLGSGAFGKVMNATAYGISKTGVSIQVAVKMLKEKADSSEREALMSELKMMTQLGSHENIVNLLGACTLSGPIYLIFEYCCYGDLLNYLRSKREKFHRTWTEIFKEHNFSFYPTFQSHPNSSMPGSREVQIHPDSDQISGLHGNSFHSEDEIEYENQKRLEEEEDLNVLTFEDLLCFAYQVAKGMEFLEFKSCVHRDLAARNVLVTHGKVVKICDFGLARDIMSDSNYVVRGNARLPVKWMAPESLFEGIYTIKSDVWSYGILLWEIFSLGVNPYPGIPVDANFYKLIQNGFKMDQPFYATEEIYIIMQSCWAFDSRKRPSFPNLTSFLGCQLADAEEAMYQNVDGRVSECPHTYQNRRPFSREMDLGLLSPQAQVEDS

[7] = target: MAP kinase-interacting serine/threonine-protein kinase 2 (Homo sapiens) (UniProt Q9HBH9)
[8] = target: Serine/threonine-protein kinase PLK4 (Homo sapiens) (UniProt O00444)
[9] = target: Calcium/calmodulin-dependent protein kinase type II subunit gamma (Homo sapiens) (UniProt Q13555)
[10] = target: Ephrin type-A receptor 3 (Homo sapiens) (UniProt P29320)
[11] = target: Calcium/calmodulin-dependent protein kinase kinase 1 (Homo sapiens) (UniProt Q8N5S9)
[12] = target: Serine/threonine-protein kinase D1 (Homo sapiens) (UniProt Q15139)
[13] = target: Tyrosine-protein kinase receptor UFO (Homo sapiens) (UniProt P30530)
[14] = tested on: Mast/stem cell growth factor receptor Kit (Homo sapiens), P10721 [V559D,V654A]
[15] = target: Mitogen-activated protein kinase 12 (Homo sapiens) (UniProt P53778)
[16] = tested on: Epidermal growth factor receptor (Homo sapiens), P00533 [L858R,T790M]
[17] = target: Cyclin-dependent kinase 18 (Homo sapiens) (UniProt Q07002)
[18] = target: Mitogen-activated protein kinase kinase kinase 1 (Homo sapiens) (UniProt Q13233)
Mitogen-activated protein kinase kinase kinase 1 (Homo sapiens), sequence (Q13233 whole entry): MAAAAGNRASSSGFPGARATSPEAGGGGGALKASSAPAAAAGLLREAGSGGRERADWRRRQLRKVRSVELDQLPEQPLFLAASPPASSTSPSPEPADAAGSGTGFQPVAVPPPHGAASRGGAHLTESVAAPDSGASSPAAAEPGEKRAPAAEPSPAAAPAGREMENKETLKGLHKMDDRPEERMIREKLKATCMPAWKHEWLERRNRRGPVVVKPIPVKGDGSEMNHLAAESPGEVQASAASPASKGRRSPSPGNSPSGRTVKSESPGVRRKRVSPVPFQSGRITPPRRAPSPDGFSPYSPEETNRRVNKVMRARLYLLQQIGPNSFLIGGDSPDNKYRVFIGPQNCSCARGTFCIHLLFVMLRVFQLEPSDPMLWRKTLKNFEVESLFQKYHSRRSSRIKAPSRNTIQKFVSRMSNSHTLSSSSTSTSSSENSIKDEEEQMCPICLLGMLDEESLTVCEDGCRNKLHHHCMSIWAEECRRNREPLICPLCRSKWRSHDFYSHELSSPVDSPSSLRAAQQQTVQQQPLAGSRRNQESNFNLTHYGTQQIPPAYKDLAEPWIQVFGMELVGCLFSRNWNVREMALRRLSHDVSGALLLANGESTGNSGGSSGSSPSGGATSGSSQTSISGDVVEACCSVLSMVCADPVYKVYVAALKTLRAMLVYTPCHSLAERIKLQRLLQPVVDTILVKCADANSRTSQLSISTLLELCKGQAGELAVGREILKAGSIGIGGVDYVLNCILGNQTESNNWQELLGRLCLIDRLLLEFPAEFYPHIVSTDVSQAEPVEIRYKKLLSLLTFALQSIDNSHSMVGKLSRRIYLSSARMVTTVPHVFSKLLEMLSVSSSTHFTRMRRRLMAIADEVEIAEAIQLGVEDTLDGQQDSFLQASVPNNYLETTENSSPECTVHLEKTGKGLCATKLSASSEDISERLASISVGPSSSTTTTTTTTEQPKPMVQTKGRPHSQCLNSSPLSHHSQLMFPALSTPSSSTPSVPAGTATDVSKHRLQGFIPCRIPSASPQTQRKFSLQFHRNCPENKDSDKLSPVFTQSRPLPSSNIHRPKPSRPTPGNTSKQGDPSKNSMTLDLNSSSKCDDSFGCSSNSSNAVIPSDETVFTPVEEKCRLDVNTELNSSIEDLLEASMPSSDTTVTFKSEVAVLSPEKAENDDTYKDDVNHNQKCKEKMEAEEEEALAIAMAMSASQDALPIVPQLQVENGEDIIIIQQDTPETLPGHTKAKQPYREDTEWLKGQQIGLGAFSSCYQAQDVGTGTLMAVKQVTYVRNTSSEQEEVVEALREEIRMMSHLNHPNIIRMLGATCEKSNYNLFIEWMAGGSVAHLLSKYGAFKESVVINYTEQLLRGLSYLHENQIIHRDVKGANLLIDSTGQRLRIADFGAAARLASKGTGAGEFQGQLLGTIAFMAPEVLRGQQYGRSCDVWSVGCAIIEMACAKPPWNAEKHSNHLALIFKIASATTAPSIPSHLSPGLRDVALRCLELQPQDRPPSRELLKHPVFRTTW

[19] = target: Serine/threonine-protein kinase LATS1 (Homo sapiens) (UniProt O95835)
[20] = target: Rho-associated protein kinase 1 (Homo sapiens) (UniProt Q13464)
Rho-associated protein kinase 1 (Homo sapiens), sequence (Q13464 2-1354 limits assumed): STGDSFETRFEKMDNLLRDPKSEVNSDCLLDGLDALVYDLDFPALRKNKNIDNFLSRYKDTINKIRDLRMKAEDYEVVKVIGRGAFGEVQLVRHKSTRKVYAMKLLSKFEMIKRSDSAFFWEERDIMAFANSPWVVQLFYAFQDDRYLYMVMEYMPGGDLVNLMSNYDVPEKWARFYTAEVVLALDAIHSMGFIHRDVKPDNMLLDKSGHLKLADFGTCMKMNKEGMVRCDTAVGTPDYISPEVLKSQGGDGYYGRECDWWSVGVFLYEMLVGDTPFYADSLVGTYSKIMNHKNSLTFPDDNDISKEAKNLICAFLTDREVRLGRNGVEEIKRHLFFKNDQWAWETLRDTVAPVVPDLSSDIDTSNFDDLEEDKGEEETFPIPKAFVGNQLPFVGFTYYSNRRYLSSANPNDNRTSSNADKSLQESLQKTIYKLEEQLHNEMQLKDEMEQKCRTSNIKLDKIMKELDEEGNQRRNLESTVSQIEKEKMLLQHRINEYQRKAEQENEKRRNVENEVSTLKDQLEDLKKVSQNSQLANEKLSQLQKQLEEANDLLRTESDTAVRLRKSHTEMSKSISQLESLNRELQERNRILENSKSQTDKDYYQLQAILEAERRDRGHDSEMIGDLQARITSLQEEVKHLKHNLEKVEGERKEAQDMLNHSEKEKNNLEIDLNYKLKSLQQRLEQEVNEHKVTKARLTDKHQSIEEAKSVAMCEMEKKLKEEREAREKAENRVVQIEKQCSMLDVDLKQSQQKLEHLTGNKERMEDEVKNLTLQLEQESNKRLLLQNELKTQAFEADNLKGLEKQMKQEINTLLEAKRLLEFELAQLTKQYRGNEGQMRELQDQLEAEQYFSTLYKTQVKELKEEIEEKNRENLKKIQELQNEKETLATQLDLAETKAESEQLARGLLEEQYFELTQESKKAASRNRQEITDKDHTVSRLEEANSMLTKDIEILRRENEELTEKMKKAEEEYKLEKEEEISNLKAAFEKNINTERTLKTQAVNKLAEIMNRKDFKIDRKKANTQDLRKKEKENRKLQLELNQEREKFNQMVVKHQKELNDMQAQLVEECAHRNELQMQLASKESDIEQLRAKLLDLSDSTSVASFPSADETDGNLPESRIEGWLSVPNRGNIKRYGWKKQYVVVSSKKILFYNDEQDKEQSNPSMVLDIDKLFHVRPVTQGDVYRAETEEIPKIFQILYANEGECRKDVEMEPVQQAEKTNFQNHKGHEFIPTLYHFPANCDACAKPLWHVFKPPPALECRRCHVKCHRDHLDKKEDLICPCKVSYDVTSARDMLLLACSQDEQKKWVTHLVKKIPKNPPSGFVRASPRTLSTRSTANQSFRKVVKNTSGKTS

[21] = target: Serine/threonine-protein kinase SIK2 (Homo sapiens) (UniProt Q9H0K1)
[22] = target: Homeodomain-interacting protein kinase 1 (Homo sapiens) (UniProt Q86Z02)
[23] = target: Serine/threonine-protein kinase haspin (Homo sapiens) (UniProt Q8TF76)
[24] = target: Serine/threonine-protein kinase Nek10 (Homo sapiens) (UniProt Q6ZWH5)
[25] = target: Serine/threonine-protein kinase Nek4 (Homo sapiens) (UniProt P51957)
[26] = target: Serine/threonine-protein kinase SIK3 (Homo sapiens) (UniProt Q9Y2K2)
[27] = target: Rhodopsin kinase GRK7 (Homo sapiens) (UniProt Q8WTQ7)
[28] = target: Protein kinase C theta type (Homo sapiens) (UniProt Q04759)
[29] = target: Serine/threonine-protein kinase TAO1 (Homo sapiens) (UniProt Q7L7X3)
[30] = tested on: Tyrosine-protein kinase ABL1 (Homo sapiens), P00519 [T315I]
[31] = target: Calcium/calmodulin-dependent protein kinase type II subunit delta (Homo sapiens) (UniProt Q13557)
[32] = tested on: Mast/stem cell growth factor receptor Kit (Homo sapiens), P10721 [D816V]
[33] = target: Serine/threonine-protein kinase PLK2 (Homo sapiens) (UniProt Q9NYY3)
[34] = target: Activated CDC42 kinase 1 (Homo sapiens) (UniProt Q07912)
[35] = target: Activin receptor type-2B (Homo sapiens) (UniProt Q13705)
Activin receptor type-2B (Homo sapiens), sequence (Q13705 whole entry): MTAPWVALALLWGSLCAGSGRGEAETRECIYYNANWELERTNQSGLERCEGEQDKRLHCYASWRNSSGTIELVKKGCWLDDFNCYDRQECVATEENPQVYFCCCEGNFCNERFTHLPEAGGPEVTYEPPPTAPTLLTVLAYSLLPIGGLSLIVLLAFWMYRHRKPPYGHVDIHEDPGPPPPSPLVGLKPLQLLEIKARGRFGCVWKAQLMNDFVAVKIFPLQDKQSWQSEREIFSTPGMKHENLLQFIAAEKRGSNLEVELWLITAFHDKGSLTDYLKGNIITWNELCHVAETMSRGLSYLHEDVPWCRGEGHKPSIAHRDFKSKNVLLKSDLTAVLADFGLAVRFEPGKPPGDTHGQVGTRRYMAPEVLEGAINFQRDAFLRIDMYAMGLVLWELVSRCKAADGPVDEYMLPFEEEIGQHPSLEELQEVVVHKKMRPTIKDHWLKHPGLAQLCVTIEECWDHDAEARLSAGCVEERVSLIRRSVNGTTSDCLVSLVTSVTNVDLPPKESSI

[36] = target: Serine/threonine-protein kinase MAK (Homo sapiens) (UniProt P20794)
[37] = target: Mitogen-activated protein kinase kinase kinase 10 (Homo sapiens) (UniProt Q02779)
[38] = target: Ephrin type-B receptor 2 (Homo sapiens) (UniProt P29323)
[39] = target: Receptor-type tyrosine-protein kinase FLT3 (Homo sapiens) (UniProt P36888); remark: listed apart in the source
[40] = target: Vascular endothelial growth factor receptor 3 (Homo sapiens) (UniProt P35916)
[41] = target: Mitogen-activated protein kinase kinase kinase 14 (Homo sapiens) (UniProt Q99558)
[42] = target: Mitogen-activated protein kinase kinase kinase 20 (Homo sapiens) (UniProt Q9NYL2)
[43] = target: Aurora kinase B (Homo sapiens) (UniProt Q96GD4)
[44] = target: Vascular endothelial growth factor receptor 1 (Homo sapiens) (UniProt P17948)
[45] = target: G protein-coupled receptor kinase 4 (Homo sapiens) (UniProt P32298)

Measured: residual activity

CC(=O)C1=C(C)N(c2cccc(C(F)(F)F)c2)C(=O)N[C@@H]1c1ccc(C#N)nc1 [BAY-678]
inactive: [1] 72.8% | [2] 74.6% | [3] 92.6% | [4] 100% | [5] 95.7% | [6] 82.9% | [7] 84.8% | [8] 82.7% | [9] 100% | [10] 100% | [11] 100% | [12] 95.7% | [13] 100% | [14] 100% | [15] 77.4% | [16] 100% | [17] 85.1% | [18] 100% | [19] 67.1% | [20] 100% | [21] 87.8% | [22] 72.6% | [23] 100% | [24] 96.4% | [25] 93.9% | [26] 100% | [27] 100% | [28] 83.3% | [29] 100% | [30] 100% | [31] 100% | [32] 100% | [33] 97.8% | [34] 78.6% | [35] 87.5% | [36] 82.5% | [37] 92.1% | [38] 100% | [39] 100% | [40] 100% | [41] 100% | [42] 96.9% | [43] 100% | [44] 62.4% | [45] 100%
